Results: patent publication US7179819B2, “VLA-4 inhibitor compounds” (Daiichi Pharmaceutical Co., Ltd., priority 1999, dated 2007)

Cc1cc(CC(=O)N2CCC[C@H]2COc2ccc(C(=O)O)cc2)ccc1NC(=O)Nc1ccccc1Cl [Compound 81, 4-[1-[4-[N′-(2-chlorophenyl)ureido]-3-methylphenylacetyl]-(2S)-pyrrolidinyl]methoxybenzoic acid]
melting point: 122 to 124 °C

COc1cc(CC(=O)N(C)CCOc2ccc(C(=O)O)cc2NC(C)C)ccc1NC(=O)Nc1ccccc1F [Compound 279, 3-isopropylamino-4-[[2-[3-methoxy-4-[N′-(2-fluorophenyl)ureido]phenylacetyl]methylamino]ethoxy]benzoic acid]
melting point: 195 to 200 °C

COc1cc(CC(=O)N(C)CCN(C)c2ccc(C(=O)O)cc2)ccc1NC(=O)Nc1ccccc1C [Compound 286, 4-[[2-[3-methoxy-4-[N′-(2-methylphenyl)ureido]phenylacetyl]methylamino]ethyl]methylamino benzoic acid]
melting point: 125 to 130 °C

O=C(Nc1ccccc1)Nc1ccc(CC(=O)N2C[C@@H](F)C[C@H]2COc2ccc(C(=O)O)cc2)cc1 [Compound 72, 4-[(4S)-fluoro-1-[4-(N′-phenylureido)phenylacetyl]-(2S)-pyrrolidinylmethoxy]benzoic acid]
melting point: 169 to 171 °C

Cc1cc(CC(=O)N2C[C@@H](F)C[C@H]2COc2ccc(C(=O)O)cc2)ccc1NC(=O)Nc1ccccc1C(F)(F)F [Compound 77, 4-[(4S)-fluoro-1-[3-methyl-4-[N′-(2-trifluoromethylphenyl)ureido]phenylacetyl]-(2S)-pyrrolidinylmethoxy]benzoic acid]
melting point: 123 to 126 °C

COc1cc(CC(=O)N2CC(N)C[C@H]2COc2ccc(C(=O)O)cc2)ccc1NC(=O)Nc1ccccc1C (stereo in doubt) [Compound 151, 4-[trans-4-amino-1-[3-methoxy-4-[N′-(2-methylphenyl)ureido]phenylacetyl]-(2S)-pyrrolidinyl]methoxybenzoic acid]
melting point: 170 to 171 °C

COc1cc(CC(=O)N2CCCC2C#Cc2ccc(C(=O)O)cc2)ccc1NC(=O)Nc1ccccc1 (centres unmarked) [Compound 13, 4-[2-[1-[3-methoxy4-(N′-phenylureido)phenylacetyl]-2-pyrrolidinyl]ethynyl]benzoic acid]
melting point: 154 to 157 °C

Cc1ccccc1NC(=O)Nc1ccc(CC(=O)N[C@@H](C)COc2ccc(C(=O)O)cc2)cc1 [Compound 273, (S)-4-[2-[4-[N′-(2-methylphenyl)ureido]phenylacetylamino]-1-propoxy]benzoic acid]
melting point: 262 to 265 °C

Cc1ccccc1NC(=O)Nc1ccc(CC(=O)N(C)CCOc2ccc(C(=O)O)cc2N(C)C)cc1 [Compound 278]
melting point: 110 to 115 °C

COc1cc(C(=O)O)ccc1OCc1csc(Cc2ccc(NC(=O)Nc3ccccc3C)cc2)n1 [Compound 41, 3-methoxy-4-[2-[4-[N′-(2-methylphenyl)ureido]benzyl]4-thiazolyl]methoxybenzoic acid]
melting point: 243 to 245 °C

Cc1ccccc1NC(=O)Nc1ccc(CC(=O)N2CCCC2CCc2ccc(C(=O)O)cc2)cc1 (centres unmarked) [Compound 7, 4-[2-[1-[4-[N′-(2-methylphenyl)ureido]phenylacetyl]-2-pyrrolindinyl]ethyl]benzoic acid]
melting point: 180 to 190 °C

COc1cc(CC(=O)N2CCCC2C#Cc2ccc(C(=O)O)cc2)ccc1NC(=O)Nc1ccccc1F (centres unmarked) [Compound 33, 4-[2-[1-[4-[N′-(2-fluorophenyl)ureido)-3-methoxyphenylacetyl]-2-pyrrolidinyl]ethynyl]benzoic acid]
melting point: 152 to 155 °C (dec.)

COc1cc(CC(=O)N2C[C@@H](Oc3ccc(C(=O)O)cc3)C[C@H]2COc2ccc(C(=O)O)cc2)ccc1NC(=O)Nc1ccccc1Cl [Compound 117, 4-[(4S)-(4-carboxyphenoxy)-1-[4-[N′-(2-chlorophenyl)uriedo]-3-methoxyphenylacetyl]-(2S)-pyrrolidinylmethoxy]benzoic acid]
melting point: 150 to 153 °C

COc1cc(CC(=O)N(C)CCOc2ccc(C(=O)O)cc2NC(C)C)ccc1NC(=O)Nc1ccccc1C [Compound 285, 3-isopropylamino-4-[[2-[3-methoxy-4-[′-(2-methylphenyl)ureido]phenylacetyl]methylamino]ethoxy]benzoic acid]
melting point: 130 to 135 °C

COc1cc(CC(=O)N2CC(F)(F)C[C@H]2COc2ccc(C(=O)O)cc2)ccc1NC(=O)Nc1ccccc1C (stereo in doubt) [Compound 139, 4-[4,4-difluoro-1-[3-methoxy-4-[N′-(2-methylphenyl)ureido]phenylacetyl]-2-pyrrolidinylmethoxy]benzoic acid]
melting point: 135 to 140 °C

COc1cc(CC(=O)N2C[C@H](OC)C[C@H]2COc2ccc(C(=O)O)cc2)ccc1NC(=O)Nc1ccccc1Br [Compound 138, 4-[1-[4-[N′-(2-bromophenyl)ureido]-3-methoxyphenylacetyl]-(4R)-methoxy-(2S)-pyrrolidinylmethoxy]benzoic acid]
melting point: 125 to 130 °C

COc1cc(CC(=O)N(C)CCNc2ccc(C(=O)O)cc2)ccc1NC(=O)Nc1ccccc1C [Compound 282, 4-[[2-[3-methoxy-4-[N′-(2-methylphenyl)ureido]phenylacetyl]methylamino]ethylamino]benzoic acid]
melting point: 115 to 120 °C

COc1cc(CC(=O)N2C[C@H](O)C[C@H]2COc2ccc(C(=O)O)cc2)ccc1NC(=O)Nc1ccccc1Cl [Compound 109]
melting point: 137 to 142 °C

COc1cc(CC(=O)N2C[C@H](N(C)C)C[C@H]2COc2ccc(C(=O)O)cc2)ccc1NC(=O)Nc1ccccc1Cl
melting point: 159 to 161 °C

COc1cc(CC(=O)N2CCC[C@H]2COc2ncc(C(=O)O)cc2Cl)ccc1NC(=O)Nc1ccccc1C (stereo in doubt) [Compound 47, 3-chloro-2-[[1-[3-methoxy-4-[N′-(2-methylphenyl)ureido]phenylacetyl]-2-pyrrolidinyl]methoxy]pyridine-5-carboxylic acid]
melting point: 122 to 125 °C

COc1cc(CC(=O)N2CCC[C@H]2COc2ccc(C(=O)O)cc2OC)ccc1NC(=O)Nc1ccccc1F (stereo in doubt) [Compound 39, 4-[1-[4-[N′-(2-fluorophenyl)ureido]-3-methoxyphenylacetyl]-2-pyrrolidinyl]methoxy-3-methoxy benzoic acid]
melting point: 140 to 144 °C

COc1cc(CC(=O)N2CCC[C@H]2C(=O)NC2CCC(C(=O)O)CC2)ccc1NC(=O)Nc1ccccc1Cl (stereo in doubt) [Compound 181, 4-[[1-[4-[N′-(2-chlorophenyl)ureido]-3-methoxylphenylacetyl]-2-pyrrolidinyl]carbonylamino]cyclohexanecarboxylic acid]
melting point: 135 to 140 °C

COc1cc(CC(=O)N2CCC[C@H]2COc2ccc(C(=O)O)cn2)ccc1NC(=O)Nc1ccccc1C (stereo in doubt) [Compound 40, 2-[[1-[3-methoxy-4-[N′-(2-methylphenyl)ureido]phenylacetyl]-2-pyrrolidinyl]methoxy]pyridine-5-carboxylic acid]
melting point: 125 to 128 °C

COc1cc(CC(=O)N2CC[C@H](Oc3ccc(C(=O)O)cc3)C2)ccc1NC(=O)Nc1ccccc1Br [Compound 184, 4-[1-[4-[N′-(2-bromophenyl)ureido]-3-methoxyphenylacetyl]-(3S)-pyrrolidinyloxy]benzoic acid]
melting point: 173 to 175 °C

COc1cc(CC(=O)N2CCC[C@H]2COc2ccc(C(=O)O)cc2F)ccc1NC(=O)Nc1ccccc1C (stereo in doubt) [Compound 38, 3-fluoro-4-[[1-[3-methoxy-4-[N′-(2-methylphenyl)ureido]phenylacetyl]-2-pyrrolidinyl]methoxy]benzoic acid]
melting point: 123 to 126 °C

COc1cc(CC(=O)N2CC[C@@H](Oc3ccc(C(=O)O)cc3)C2)ccc1NC(=O)Nc1ccccc1Cl [Compound 186, 4-[1-[4-[N′-(2-chlorophenyl)ureido]-3-methoxyphenylacetyl]-(3R)-pyrrolidinyloxy]benzoic acid]
melting point: 193 to 194 °C

COc1cc(CC(=O)N2C[C@@H](N(C)C)C[C@H]2COc2ccc(C(=O)O)cc2)ccc1NC(=O)Nc1ccccc1Cl
melting point: 165 to 167 °C

COc1cc(CC(=O)N(C)CCOc2ccc(C(=O)O)cc2N2CCCCC2)ccc1NC(=O)Nc1ccccc1C [Compound 291, 3-(1-piperidinyl)-4-[[2-[3-methoxy-4-[N′-(2-methylphenyl)ureido]phenylacetyl]methylamino]ethoxy]benzoic acid]
melting point: 120 to 125 °C

COc1cc(CC(=O)N[C@@H](C)COc2ccc(C(=O)O)cc2Cl)ccc1NC(=O)Nc1ccccc1F [Compound 281, (S)-3-chloro-4-[2-[3-methoxy-4-[N′-(2-fluorophenyl)ureido]phenylacetylamino]-1-propoxy]benzoic acid]
melting point: 188 to 191 °C

COc1cc(CC(=O)N(C)CCOc2ccc(C(=O)O)cc2N(C)C)ccc1NC(=O)Nc1ccccc1F [Compound 277, 3-dimethylamino-4-[[2-[3-methoxy-4-[N′-(2-fluorophenyl)ureido]phenylacetyl]methylamino]ethoxy]benzoic acid]
melting point: 120 to 125 °C

COc1cc(CC(=O)N(C)CCOc2ccc(C(=O)O)cc2N)ccc1NC(=O)Nc1ccccc1C [Compound 290, 3-amino-4-[[2-[3-methoxy-4-[N′-(2-methylphenyl)ureido]phenylacetyl]methylamino]ethoxy]benzoic acid]
melting point: 125 to 130 °C

COc1cc(CC(=O)N2C[C@H](OC)C[C@H]2COc2ccc(C(=O)O)cc2)ccc1NC(=O)Nc1ccccc1C [Compound 135, 4-[(4R)-methoxy-1-[3-methoxy-4-[N′-(2-methylphenyl)ureido]phenylacetyl]-(2S)-pyrrolidinylmethoxy]benzoic acid]
melting point: 112 to 115 °C

COc1cc(CC(=O)N2C[C@H](OC)C[C@H]2COc2ccc(C(=O)O)cc2)ccc1NC(=O)Nc1ccccc1F [Compound 136, 4-[1-[4-[N′-(2-fluorophenyl)ureido]-3-methoxyphenylacetyl]-(4R)-methoxy-(2S)-pyrrolidinylmethoxy]benzoic acid]
melting point: 111 to 116 °C

COc1cc(CC(=O)N2C[C@@H](O)C[C@H]2COc2ccc(C(=O)O)cc2)ccc1NC(=O)Nc1ccccc1Br [Compound 108]
melting point: 143 to 151 °C (dec.)

COc1cc(CC(=O)N2C[C@@H](Oc3ccc4ncccc4c3)C[C@H]2COc2ccc(C(=O)O)cc2)ccc1NC(=O)Nc1ccccc1Cl [Compound 121]
melting point: 129 to 133 °C
